Results as given in patent publication US20220143021A1 (Cardiff Oncology, Inc., priority 2019, published 2022).

Key:
WPMY-1 cells = assay: EdU proliferation assay; type: cell-based, human; details: 24 h
Protocol: WPMY-1 cells are an immortalized cell line obtained from human prostate stroma without prostate cancer (Webber et al., 1999). Cells were obtained from American Type Culture Collection (ATCC; Manassas, Va., USA), and kept in RPMI 1640 (Gibco, Carlsbad, Calif., USA) supplemented with 10% fetal calf serum (FCS) and 1% penicillin/streptomycin at 37° C. with 5% CO2. Before addition of onvansertib or DMSO, the medium was changed to a FCS-free medium. For Western blot analysis, cells were lyzed using radioimmunoprecipitation assay (RIPA) buffer (Sigma-Aldrich, St. Louis, Mo., USA), and removed from flasks after 15 min of incubation on ice. Cell debris was removed by centrifugation (10,000 g, 10 min, 4° C.), and different aliquots of supernatants were either subjected to protein determination, or boiled with SDS sample buffer.
WPMY-1 cells were plated with cell line-specific densities (50,000/well) on 16-well chambered coverslips (Thermo Scientific, Waltham, Mass., USA). […] 20 h later, cells were fixed with 3.7% formaldehyde. EdU incorporation was determined using the “EdU-Click 555” cell proliferation assay (Baseclick, Tutzing, Germany) according to the manufacturer's instructions. In this assay, incorporation of EdU into DNA is assessed by detection with fluorescing 5-carboxytetramethylrhodamine (5-TAMRA). Counterstaining of all nuclei was performed with DAPI. Cells were analyzed by fluorescence microscopy (excitation: 546 nm; emission: […]).

human prostate tissues [1] = assay: organ bath, methoxamine-induced contractions of human prostate strips
Protocol: (§1) Human prostate tissues were obtained from patients undergoing radical prostatectomy for prostate cancer (n=107). Patients who underwent previous transurethral resection of the prostate (TURP) were excluded. This study was carried out in accordance with the Declaration of Helsinki of the World Medical Association, and has been approved by the ethics committee of the Ludwig-Maximilians University, Munich, Germany (Ethikkommission bei der LMU Munchen, approval number 19-737). Informed consent was obtained from all patients. According to the ethical approval, samples and data were collected and analyzed anonymously, so that no data on patients' characteristics were stored. […]
(§2) Prostate strips (6×3×3 mm) were mounted in 10 ml aerated (95% 02 and 5% CO2) tissue baths (Danish Myotechnology, Aarhus, Denmark), containing Krebs-Henseleit solution (37° C., pH 7.4) with following composition: 118 mM NaCl, 4.7 mM KCl, 2.55 mM CaCl2), 1.2 mM KH2PO4, 1.2 mM MgSO4, 25 mM NaHCO3, 7.5 mM glucose. […] Only one curve was recorded with each sample, i. e. for one agonist, or for electric field stimulation (EFS).
(§3) After mounting in organ bath chambers, preparations were stretched to 4.9 mN and left to equilibrate for 45 min. […] After the equilibration period, maximum contraction induced by 80 mM KCl was assessed. […]

296 kinases = details: cited from earlier work
human prostate tissues [2] = assay: organ bath, U46619-induced contractions of human prostate strips; details: 100 nM onvansertib
Protocol: as §1, §2, §3

human prostate tissues [3] = assay: organ bath, noradrenaline-induced contractions of human prostate strips
Protocol: Human prostate tissues were obtained from patients undergoing radical prostatectomy for prostate cancer (n=107). Patients who underwent previous transurethral resection of the prostate (TURP) were excluded. This study was carried out in accordance with the Declaration of Helsinki of the World Medical Association, and has been approved by the ethics committee of the Ludwig-Maximilians University, Munich, Germany (Ethikkommission bei der LMU Munchen, approval number 19-737). Informed consent was obtained from all patients. According to the ethical approval, samples and data were collected and analyzed anonymously, so that no data on patients' characteristics were stored. Samples were taken immediately after prostatectomy, following macroscopical examination by an uro-pathologist. All tissues were taken from the periurethral zone, considering that most prostate cancers arise in the peripheral zone (Pradidarcheep et al., 2011; Shaikhibrahim et al., 2012). […] BPH is present in 80-83% of patients with prostate cancer (Alcaraz et al., 2009; Orsted and Bojesen, 2013). Typically, such tissues show varying content of prostate-specific antigen (PSA), and different contents of smooth muscle and glandular epithelia, reflecting that BPH is present to different degree (Wang et al., 2016a, 2016c). For macroscopic examination and sampling, the prostate was opened by a single longitudinal cut from the capsule to the urethra. Subsequently, both intersections were checked macroscopically for any obvious tumor infiltration. Because tumors are usually located to the peripheral zone, tumor infiltration in the periurethral zone (where sampling was performed) was very rare (found in less than 1% of prostates). Prostates showing tumors in the periurethral zone in macroscopic inspection were not subjected to sampling and were not included in this study. Organ bath studies were performed immediately after sampling, while samples for molecular analyses were shock frozen in liquid nitrogen and stored at −80° C.
Prostate strips (6×3×3 mm) were mounted in 10 ml aerated (95% 02 and 5% CO2) tissue baths (Danish Myotechnology, Aarhus, Denmark), containing Krebs-Henseleit solution (37° C., pH 7.4) with following composition: 118 mM NaCl, 4.7 mM KCl, 2.55 mM CaCl2), 1.2 mM KH2PO4, 1.2 mM MgSO4, 25 mM NaHCO3, 7.5 mM glucose. In each single experiment, two from four strips obtained from the same prostate were allocated to the control group (without inhibitor or antagonist), and two others to the inhibitor/antagonist group (resulting in duplicate determination for each group in each single experiment). All four samples of one experiment were examined in four chambers of the same organ bath. Consequently, control and inhibitor curves in each series/diagram were obtained from the same prostates, but different prostates were examined for different series/diagrams. […] Only one curve was recorded with each sample, i. e. for one agonist, or for electric field stimulation (EFS).
as §3

human prostate tissues [4] = assay: organ bath, phenylephrine-induced contractions of human prostate strips
Protocol: as §1, §2, §3

SMILES: CN1CCN(c2ccc(OC(F)(F)F)c(Nc3ncc4c(n3)-c3c(c(C(N)=O)nn3CCO)CC4)c2)CC1 [onvansertib, 1-(2-hydroxyethyl)-8-{[5-(4-methylpiperazin-1-yl)-2-(trifluoromethoxy)phenyl]amino}-4,5-dihydro-1H-pyrazolo[4,3-h] quinazoline-3-carboxamide]
- decrease of percentage of proliferating cells (WPMY-1 cells; 10 nM): 18±0.1%
- decrease of percentage of proliferating cells (WPMY-1 cells; 50 nM): 24±2.1%
- decrease of percentage of proliferating cells (WPMY-1 cells; 100 nM): 35±2.0%
- inhibition at 0.1 µM (human prostate tissues [1]): 43 ± 19.4%
- kinases inhibited (296 kinases; tested at 100 nM against 296 kinases): inhibition only of PLK1
- number of kinases with decreases in activities (<50%) (296 kinases; tested at 1 μM against 296 kinases, including PLK1): 11
- effect on U46619-induced contractions (human prostate tissues [2]): did not change
- inhibition at 0.1 µM (human prostate tissues [3]; Homo sapiens): 45 ± 9.7%
- inhibition at 1 µM (human prostate tissues [3]; Homo sapiens): 41 ± 6.2%
- noradrenaline-induced contractions after washout versus DMSO (human prostate tissues [3]; washout of onvansertib (100 nM) for 30 min): did not differ
- inhibition at 0.1 µM (human prostate tissues [4]): 47 ± 16.2%
